Experimental data published in paper PMC5596814 (The Journal of Pharmacology and Experimental Therapeutics, 2017).

What was measured:
[1] = set-up: method as in Narasimhan et al., 2013; settings: ref Narasimhan et al., 2013, cited from earlier work
[2] = in vivo; settings: male, mouse, plasma, po, 40 mg/kg, ponatinib 40 mg/kg oral gavage; for Cmax: WT mice
[3] = target: T1, mGstp1 (Mus musculus, UniProt P19157); assay: Protein adducts of ponatinib with mGstp1 in the presence of human recombinant CYP1A1 (LC-MS/MS of tryptic digests); assay type: in vitro ADME; settings: ponatinib 50 µM, CYP1A1, 10 µg/ml mGstp1, 80 minutes
T1 construct: made in house
Protocol: The incubation was started by the addition of a NADPH-regenerating system (final concentration: 1.3 mM NADPH, 4 mM glucose-6-phosophate, 2 U/ml glucose-6-phosphate dehydrogenase, and 3.3 mM […]) and allowed to proceed at 37°C for 80 minutes. The reaction was terminated by cooling on ice, and the E. coli membrane containing human recombinant CYP1A1 was removed by ultracentrifugation at 41,000g at 4°C for 80 minutes. […] The solvent was exchanged to 50 mM ammonium bicarbonate and further concentrated to 100 µl.
Aliquots of the solution (10 µl) were mixed with 10 μl of 4× NuPAGE lithium dodecyl sulfate loading buffer (Invitrogen, Carsbad, CA) by incubation at 95°C for 5 minutes and then subjected to SDS-PAGE on a NuPAGE Novex 10% Bis-Tris mini gel (Invitrogen NP0341BOX). After electrophoresis at a constant 180 V for 30 minutes, gels were stained with Coomassie Blue. Bands (20–25 kDa) containing mGstp1 were cut from the gel, and after removing the Coomassie Blue from the gel by adding 100 mM ammonium bicarbonate/acetonitrile (1:1, v/v) and subsequently dehydrating with 100% acetonitrile, the solvent was removed from the gel pieces under vacuum. The residue was resuspended in 0.01 μg/μl MS grade trypsin (Promega, Madison, WI) in 25 mM ammonium bicarbonate and incubated at 37°C overnight. […]

[4] = WT mice treated with TCDD versus vehicle
[5] = concurrent therapy with ketoconazole (a CYP3A4 inhibitor), ref Narasimhan et al., 2013; cited from earlier work
[6] = tested on: human recombinant P450 enzymes; assay: Ponatinib biotransformation by panel of 11 human recombinant P450 enzymes; assay type: in vitro ADME; settings: ponatinib 50 µM, P450 100 nM, panel of 11 enzymes
Protocol: All incubations were performed at 37°C and 300 rpm in a thermomixer. Human cDNA-expressed P450 isoenzymes coexpressed with human NADPH P450 oxidoreductase (see Supplemental Fig. 1 for CYP:oxidoreductase ratio data) were carefully thawed on ice prior to the experiment. […] After 5-minute preincubation at 37°C, the incubation reactions were initiated by addition of a NADPH regenerating system (final concentration: 1.3 mM NADPH, 4 mM glucose-6-phosphate, and 2 unit/ml glucose-6-phosphate dehydrogenase). After 5–120 minutes, an aliquot of 100 µl of reaction mixture was quenched with same volume of cold acetonitrile containing 400 ng/ml of triazolam as the internal standard. […] An aliquot of the supernatant fraction was analyzed by liquid chromatography (LC)–tandem mass spectrometry (MS), i.e., LC-MS/MS. […]
In the present study, the absolute concentrations of the metabolites in the incubation mixture could not be determined because of the lack of authentic standards. […] The relative activity of the P450s toward metabolite formation could be calculated according to the ratio of the metabolite concentration to that in the sample with highest mass response. The PK parameters of in vivo data were calculated with a simple noncompartmental model using the WinNonLin software, version 4.1 (Pharsight (Certara, Cambridge, UK)) and are shown with the S.D. values. […]

[7] = human; cited from earlier work
[8] = in vivo; settings: for Cmax / half-life: male, hCYP1A1/1A2 humanized, mouse, in vivo, po, 40 mg/kg, ponatinib 40 mg/kg oral gavage; for Cmax: hCYP1A1/1A2 mice; for half-life: t1/2, hCYP1A1/1A2 mice
Protocol: All animal work was carried out on 8- to 12-week-old male mice. 3-Methylcholanthrene (3-MC) was suspended in corn oil at 4 mg/ml for administration by intraperitoneal injection at 40 mg/kg (10 μl/g body weight) daily for 3 days for hCYP1A1/2 mice. TCDD was suspended in corn oil at 1 µg/ml for administration by intraperitoneal injection at 10 µg/kg (10 μl/g body weight) daily for 3 days for wild-type (WT) mice. […] For blood sample collection, 10 μl of whole blood was withdrawn from the tail vein at the indicated time points. Samples were immediately added to a tube containing heparin solution (10 μl, 15 IU/ml), put into liquid nitrogen, and then stored at −80°C until processing. On the day of analysis, acetonitrile (80 µl containing 200 ng/ml triazolam) was added to thawed samples, which were shaken for 15 minutes, centrifuged for 10 minutes at 16,000g, and analyzed. […] An aliquot of 0.25 g was extracted with 1 ml of 80% methanol for 30 minutes on a vortex evaporator (Labconco, Kansas City, MO). After centrifugation (30 minutes at 4000g), the solvent of a 800 μl aliquot of the supernatant was removed by speed vacuum, followed by reconstitution in 500 μl methanol and water (50/50, v/v), and analyzed by LC-MRM.
Analysis of in vitro incubation and in vivo blood PK samples was carried out by ultra-performance LC-MS/MS using the Waters Acquity UPLC (Micromass, Manchester, United Kingdom) and Micromass Quattro Premier Mass Spectrometer with electrospray ionization. The chromatography was performed using a C18 column (Kinetex 1.7 µ 100 A; 50 × 2.1 mm; Phenomenex, Macclesfield, United Kingdom) at a temperature of 45°C with mobile phases of 0.1% formic acid (A) and acetonitrile and 0.1% formic acid (B). A gradient at a flow rate of 0.5 ml/min was run over 3 minutes as follows: 0–0.5 minutes, 95% A; 0.5–0.75 minutes, 95%–67.5% A; 0.75–1.50 minutes, 67.5% A, 1.50–2.00 minutes, 67.5%–50% A; 2.00–2.50 minutes, 50%–5% A; and then returning to the initial conditions for a final 0.5 minutes. The cone voltage and collision energy were optimized for each substrate and MRM data were acquired (Supplemental Table 1).
In the present study, the absolute concentrations of the metabolites in the incubation mixture could not be determined because of the lack of authentic standards. Therefore, the relative activity of the P450s was presented by comparing the concentration of the metabolite in a sample with the concentration of the same metabolite in the sample that had the highest response under the same experimental condition ([Yu et al., 2010]). The relative activity of the P450s toward metabolite formation could be calculated according to the ratio of the metabolite concentration to that in the sample with highest mass response. The PK parameters of in vivo data were calculated with a simple noncompartmental model using the WinNonLin software, version 4.1 (Pharsight (Certara, Cambridge, UK)) and are shown with the S.D. values. The P values were calculated using an unpaired t test; *P < 0.05, **P < 0.01, ***P < 0.001.

[9] = cited from earlier work
[10] = hCYP1A1/1A2 mice treated with 3-MC versus vehicle
[11] = 3-MC pretreatment (40 mg/kg i.p. daily for 3 days)
[12] = ponatinib treatment, ref Cortes et al., 2012

T1 sequence (P19157 2-210 limits assumed): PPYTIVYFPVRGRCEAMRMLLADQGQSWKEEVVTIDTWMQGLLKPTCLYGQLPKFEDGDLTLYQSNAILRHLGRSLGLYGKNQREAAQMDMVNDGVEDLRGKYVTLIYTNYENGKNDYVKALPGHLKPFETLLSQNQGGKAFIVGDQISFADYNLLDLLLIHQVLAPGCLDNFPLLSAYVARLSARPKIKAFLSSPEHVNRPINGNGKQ

## Cc1ccc(C(=O)Nc2ccc(CN3CCNCC3)c(C(F)(F)F)c2)cc1C#Cc1cnc2cccnn12 [N-desmethyl]
[1]
  potency relative to ponatinib (fold less potent): 4 fold

## Cc1ccc(C(=O)O)cc1C#Cc1cnc2cccnn12 [AP24600]
[1]; esterase/amidase product
  activity of metabolite: inactive

## Cc1ccc(C(=O)Nc2ccc(CN3CCN(C)CC3)c(C(F)(F)F)c2)cc1C#Cc1cnc2cccnn12 [ponatinib, 3-[2-(imidazo[1,2-b]pyridazin-3-yl)ethynyl]-4-methyl-N-4-[(4-methylpiperazin-1-yl)methyl]-3-(trifluoromethyl)phenylbenzamide]
[2]; TCDD pretreatment (10 µg/kg i.p. daily for 3 days)
  Cmax: 253 ± 42 ng/mL
[2]; vehicle pretreatment
  Cmax: 1210 ng/mL
[2]; t1/2, WT mice, vehicle pretreatment
  half-life: 6.2 ± 0.2 h
[3]
  covalent ponatinib adducts on mGstp1 cysteine residues: ponatinib-Gstp adducts had been formed on Cys-14 and Cys-47
[4]
  decrease in the ponatinib half-life: 62%
  reduction in the AUC0–8 hours value: 87%
[5]
  change of ponatinib AUC0–∞, AUC0–t and Cmax values: significantly increased
[6]
  P450 enzymes metabolizing ponatinib, disappearance of the parent drug: principally metabolized via CYP3A4 and CYP1A1
[7]
  plasma half-life (t1/2): ~24 h
[8]; [10]
  reduction in AUC0–8 hours: 54%
  reduction in half-life: 67%
[8]; [11]
  Cmax: 620 ± 245 ng/mL
  half-life: 4.6 ± 0.8 h
[8]; vehicle pretreatment
  Cmax: 705 ± 96 ng/mL
  half-life: 13.9 ± 1.7 h
[9]; clinical trials
  alanine aminotransferase elevation, patients in clinical trials: 10.5%
  aspartate aminotransferase elevation, patients in clinical trials: 8.2%
[9]; [12]
  neutropenia, patients: 19%
  thrombocytopenia, patients: 37%
